Results published in patent US11401278B2, “Macrocyclic indole derivatives” (The Broad Institute, Inc., priority 2017, dated 2022).
Read-outs that look alike come from different tables or passages of the source.

Key:
[1] = tested on: SUDHL5; experiment: Induction of caspase-3/7 activity (Assay 4), SUDHL5; type: cell-based; settings: caspase-3/7 induction, 3 hours, median
Procedure, shortened: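 DLBCL cells were exposed to compounds for 3 hours at 37 °C, then caspase-3/7 activation was read with Caspase-Glo 3/7 reagent. After subtracting medium-only background, EC50s were derived with fixed C0=1 and the reference compound's maximal induction as plateau.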

[2] = tested on: AMO-1; experiment: Antiproliferation assay (Assay 7), AMO-1; type: cell-based; settings: CellTiter-Glo, 72 hours, several values per example
Procedure, shortened: (§1)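 Proliferation was read by CellTiter-Glo luminescence after 72 hours of compound treatment at 37° C. The read was referenced to a parallel plate measured at time zero.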

[3] = tested on: MV-4-11; experiment: Antiproliferation assay (Assay 7), MV-4-11; type: cell-based; settings: CellTiter-Glo, 72 hours, several values per example, listed as 08, read-out: Antiproli MV-4-11 [M] IC50
Procedure, shortened: as §1

[4] = tested on: SUDHL5; experiment: Antiproliferation assay (Assay 7), SUDHL5; type: cell-based; settings: CellTiter-Glo, 72 hours, median, read-out: Antiproli SUDHL5 [M] (median) IC50
Procedure, shortened: as §1

[5] = target: MCL-1 (Homo sapiens (Human), UniProt Q07820, K194A/K197A/R201A); experiment: Protein-protein interaction assay MCL-1/Noxa BH3 peptide (MCL-1 assay, TR-FRET); type: binding; settings: MBP-MCL-1 / Noxa BH3 peptide, median
MCL-1, sequence (Q07820 whole entry K194A/K197A/R201A, looked up): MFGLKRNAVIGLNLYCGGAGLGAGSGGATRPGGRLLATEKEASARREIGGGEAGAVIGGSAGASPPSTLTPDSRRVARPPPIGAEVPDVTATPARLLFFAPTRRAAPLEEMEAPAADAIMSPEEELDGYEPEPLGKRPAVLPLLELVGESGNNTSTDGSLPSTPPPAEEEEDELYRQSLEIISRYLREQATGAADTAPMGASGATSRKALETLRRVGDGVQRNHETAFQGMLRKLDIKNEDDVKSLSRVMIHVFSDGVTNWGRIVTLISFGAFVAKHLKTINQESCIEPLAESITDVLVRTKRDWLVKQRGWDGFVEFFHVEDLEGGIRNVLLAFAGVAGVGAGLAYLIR
Procedure, shortened: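 TR-FRET competition assay read at 665/620 nm, with a Noxa BH3 tracer peptide (1 nM) plus Eu-cryptate anti-MBP and XL665-streptavidin. Compounds (0.1 nM-20 μM, duplicates) were pre-equilibrated 10 min at 22° C with 1 nM MBP-MCL-1 (173-329) in Tris pH 7, NaCl, KF, DTT buffer, then incubated 1 h at 22° C and overnight at 4° C. IC50 came from 4-parameter regression.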

[6] = tested on: SUDHL10; experiment: Induction of cytotoxicity (Assay 6), SUDHL10; settings: read-out: Cytotox SUDHL10 [M] (median) IC50, CellTiter-Glo, 5 hours, SUDHL10
Method: Assay 6 Induction of Cytotoxicity Upon Treatment of Cells with Selected Compounds
Therefore, cytotoxicity assays were run in parallel in SUDHL5 and SUDHL10 cells.
The different cell lines were plated in culture medium (RPMI 1640 [GIBCO #22400-089] supplemented with 10% Fetal Bovine Serum) at a density of 3,300 cells in 30 μl/well in a sterile, solid black, flat bottom, polystyrene, TC-treated 384-well microplate (Corning #3571) using Multidrop Combi Reagent Dispenser. As a control, medium without cells was also added to the plate. Cells were incubated in a humidified incubator at 37° C. overnight. On the next day, the cells were treated with compounds (stock solution, 10 mM in DMSO) using the HP D300 Digital Dispenser in a concentration range of 3.3×10e-5 M (33 μM) to 5×10e-9 M (5 nM) in a single-dot curve with at least 16 dilutions and a DMSO concentration of 0.33%. Rim wells were excluded. The cells were incubated for 5 hours in a humidified incubator at 37° C. After this incubation, 30 μl of CellTiter-Glo® Luminescent Cell Viability reagent (Promega, G7573) was added to each well using the Multidrop Combi Reagent Dispenser, followed by 15 minutes incubation on a shaker at room temperature. Finally, luminescence was read at 0.1 ms, with a gain of 3000 using the PHERAstar FS microplate reader (BMG Labtech).

[7] = tested on: SUDHL5; experiment: Induction of cytotoxicity (Assay 6), SUDHL5; settings: read-out: Cytotox SUDHL5 [M] (median) IC50, CellTiter-Glo, 5 hours, SUDHL5
[8] = tested on: HMC-1-8; experiment: Antiproliferation assay (Assay 7), HMC-1-8; type: cell-based; settings: CellTiter-Glo, several values per example, read-out: Antiproli HMC-1-8 [M] IC50
Procedure, shortened: as §1

SMILES	EC50 [1]	IC50 ([2]; listed as 08, read-out: Antiproli AMO-1 [M] IC50)	IC50 [3]	IC50 [4]	IC50 [5]	IC50 [6]	IC50 [7]	IC50 ([8]; 72 h)	IC50 ([2]; read-out: Antiproli AMO-1 [M] IC50)	IC50 ([8]; 72 hours)
CCc1c2c(nn1C)CN(C)S(=O)(=O)CCCn1c(C(=O)O)c(CCCOc3cccc4cc(F)ccc34)c3ccc(F)c-2c31 (single isomer, unassigned; enantiomer 1) [Example 8, (+)-3-Ethyl-4-fluoro-7-{3-[(6-fluoronaphthalen-1-yl)oxy]propyl}-2,14-dimethyl-13,13-dioxo-10,11,12,13,14,15-hexahydro-2H-13λ^6-pyrazolo[3′,4′:4,5][1,2,8]thiadiazacycloundecino-[6,7,8-hi]indole-8-carboxylic acid (Enantiomer 1)]	0.58 µM	1.5e-06 M	1.18e-06 M	7.6e-07 M	0.0017 µM	1.1e-06 M	7.7e-07 M	2.2e-06 M		
Cc1c2c(nn1C)CN(C1CC1)S(=O)(=O)CCCn1c(C(=O)O)c(CCCOc3cccc4ccccc34)c3ccc(Cl)c-2c31 [Example 40, (rac)-4-chloro-14-cyclopropyl-2,3-dimethyl-7-[3-(1-naphthyloxy)propyl]-11,12,14,15-tetrahydro-2H,10H-pyrazolo[3′,4′:4,5][1,2,8]thiadiazacycloundecino[6,7,8-hi]indole-8-carboxylic acid 13,13-dioxide]	1.9 µM			2.6e-06 M	0.0021 µM	3.9e-06 M	2e-06 M		4.9e-06 M	7.2e-06 M
